Results taken from the supplement of paper PMC10307832.

What was measured:
Assay in all cases: relative viability (nuclei count vs DMSO), 5 days (fraction); higher = more cells survive
Dabrafenib + Luminespib = compound: CC(C)(C)c1nc(-c2cccc(NS(=O)(=O)c3c(F)cccc3F)c2F)c(-c2ccnc(N)n2)s1 [Dabrafenib] + CCNC(=O)c1noc(-c2cc(C(C)C)c(O)cc2O)c1-c1ccc(CN2CCOCC2)cc1 [Luminespib] (partner 0.01 µM)
Summary of the method: (§1)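 Values are medians from duplicate plates. Each reflects relative viability, defined as the nuclei count of treated wells over that of vehicle wells. Lung cancer cell lines in 1536-well plates were pin-tool dosed one day after seeding with one drug alone or with a fixed anchor-drug dose plus five library-drug doses (not always all listed) in √10 steps, then fixed, stained and imaged at 4× after 5 days.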

Dabrafenib + Phenformin = compound: CC(C)(C)c1nc(-c2cccc(NS(=O)(=O)c3c(F)cccc3F)c2F)c(-c2ccnc(N)n2)s1 [Dabrafenib] + N=C(N)NC(=N)NCCc1ccccc1 [Phenformin] (partner 250 µM)
Summary of the method: as §1

Dabrafenib + Decitabine = compound: CC(C)(C)c1nc(-c2cccc(NS(=O)(=O)c3c(F)cccc3F)c2F)c(-c2ccnc(N)n2)s1 [Dabrafenib] + Nc1ncn([C@H]2C[C@H](O)[C@@H](CO)O2)c(=O)n1 [Decitabine] (partner 2 µM)
Summary of the method: as §1

VX-702 + Linsitinib = compound: NC(=O)c1ccc(N(C(N)=O)c2c(F)cccc2F)nc1-c1ccc(F)cc1F [VX-702] + C[C@]1(O)C[C@@H](c2nc(-c3ccc4ccc(-c5ccccc5)nc4c3)c3c(N)nccn32)C1 [Linsitinib] (partner 1 µM)
Summary of the method: as §1

Cell Line | relative viability (Dabrafenib + Luminespib; first compound 0.003 µM) | relative viability (Dabrafenib + Luminespib; first compound 0.009487 µM) | relative viability (Dabrafenib + Luminespib; first compound 0.03 µM) | relative viability (Dabrafenib + Luminespib; first compound 0.09487 µM) | relative viability (Dabrafenib + Luminespib; first compound 0.3 µM) | relative viability (Dabrafenib + Phenformin; first compound 0.003 µM) | relative viability (Dabrafenib + Phenformin; first compound 0.009487 µM) | relative viability (Dabrafenib + Phenformin; first compound 0.03 µM) | relative viability (Dabrafenib + Phenformin; first compound 0.09487 µM) | relative viability (Dabrafenib + Phenformin; first compound 0.3 µM) | relative viability (Dabrafenib + Decitabine; first compound 0.003 µM) | relative viability (Dabrafenib + Decitabine; first compound 0.009487 µM) | relative viability (Dabrafenib + Decitabine; first compound 0.03 µM) | relative viability (Dabrafenib + Decitabine; first compound 0.09487 µM) | relative viability (Dabrafenib + Decitabine; first compound 0.3 µM) | relative viability (VX-702 + Linsitinib; first compound 0.02 µM) | relative viability (VX-702 + Linsitinib; first compound 0.2 µM) | relative viability (VX-702 + Linsitinib; first compound 0.6325 µM) | relative viability (VX-702 + Linsitinib; first compound 2 µM)
201T | 1.08 | 1.1 | 0.967 | 0.983 | 1.06 | 0.423 | 0.428 | 0.372 | 0.41 | 0.465 | 0.853 | 0.825 | 0.731 | 0.846 | 0.769 | 0.958 | 1.03 | 0.986 | 0.987
A549 |  |  |  |  |  |  | 0.18 | 0.191 | 0.173 | 0.151 |  | 0.277 | 0.201 | 0.212 | 0.0722 | 0.502 | 0.579 | 0.57 | 0.563
A-427 |  | 1 | 0.772 | 0.744 | 1.14 |  | 0.292 | 0.273 | 0.276 | 0.378 | 0.569 | 0.562 | 0.569 | 0.551 | 0.504 | 1.1 | 1.05 | 1.17 | 1.17
ABC-1 | 0.67 | 0.637 |  | 0.449 | 0.875 | 0.214 | 0.233 | 0.254 | 0.232 | 0.209 |  | 1.07 | 1.15 | 1.28 | 1.54 | 0.661 |  | 0.925 | 1.16
BEN |  | 0.549 |  | 0.344 | 0.332 |  | 0.257 |  | 0.272 | 0.242 |  | 0.865 |  | 0.721 | 0.656 | 0.828 | 0.798 | 0.967 | 0.852
CAL-12T | 0.362 | 0.517 | 0.408 | 0.445 | 0.32 | 0.584 | 0.51 | 0.601 | 0.572 | 0.677 |  |  |  |  |  | 0.815 | 0.898 | 0.722 | 0.881
COR-L23 | 0.648 | 0.76 | 0.544 | 0.603 | 0.771 | 0.466 | 0.425 | 0.431 | 0.396 | 0.431 | 0.475 | 0.47 | 0.41 | 0.432 | 0.279 | 1.09 | 1.06 | 0.959 | 1.26
COR-L 105 | 0.852 | 0.936 | 0.916 | 0.949 | 0.977 | 0.497 | 0.507 | 0.417 | 0.492 | 0.547 | 0.6 | 0.691 | 0.666 | 0.681 | 0.675 | 0.965 | 0.916 | 0.956 | 1.4
Calu-6 |  |  |  |  |  |  |  |  |  |  |  |  |  |  |  |  | 0.967 | 1.09 | 1.02
ChaGo-K-1 | 0.57 | 0.647 | 0.517 | 0.529 | 0.47 | 0.315 | 0.446 | 0.472 | 0.418 | 0.556 | 0.456 | 0.508 | 0.552 | 0.522 | 0.402 |  |  |  | 
EBC-1 |  |  |  |  |  |  |  |  |  |  |  |  |  |  |  | 1.07 | 0.935 | 0.914 | 0.993
EKVX | 0.996 | 1.03 | 0.852 | 0.819 | 0.897 | 0.147 | 0.227 | 0.187 | 0.196 | 0.236 |  | 0.38 | 0.29 | 0.44 | 0.353 | 0.946 | 1.01 | 1.01 | 0.988
EMC-BAC-2 | 1.16 | 1.23 | 1 | 1.13 | 1.28 | 0.518 | 0.563 | 0.364 | 0.418 | 0.548 |  | 0.959 | 0.974 | 0.933 | 0.905 | 0.83 | 0.796 | 0.816 | 0.892
EPLC-272H | 0.156 | 0.233 | 0.467 | 0.272 | 0.546 | 0.211 | 0.331 | 0.406 | 0.267 | 0.332 |  | 0.393 | 0.367 | 0.365 | 0.442 | 1 | 1.1 | 1.13 | 1.28
H3255 | 0.699 | 0.961 | 0.908 | 0.96 | 0.871 | 0.345 | 0.444 | 0.338 | 0.391 | 0.383 | 0.539 | 0.704 | 0.585 | 0.625 | 0.649 | 0.941 | 0.856 | 0.866 | 0.929
HARA | 0.83 | 0.818 |  | 0.621 | 0.726 | 0.448 | 0.46 |  | 0.364 | 0.511 |  | 0.537 | 0.595 | 0.539 | 0.499 | 1.02 | 0.877 | 0.927 | 0.797
HCC-15 | 0.379 | 0.634 | 0.285 | 0.0381 | 0.52 | 0.461 | 0.461 | 0.528 | 0.401 | 0.382 | 0.586 | 0.677 | 0.665 | 0.669 | 0.636 | 0.825 | 0.766 | 0.843 | 0.952
HCC-44 | 1.12 | 1.01 | 1.17 | 0.98 | 0.861 |  | 0.173 | 0.183 | 0.227 | 0.235 | 1.04 | 0.851 | 0.921 | 0.963 | 0.872 | 0.618 | 0.671 | 0.617 | 0.65
HCC-78 |  |  |  |  |  |  | 0.866 | 0.704 | 0.614 | 0.667 |  | 0.681 | 0.55 | 0.625 | 0.474 | 0.448 | 0.508 | 0.427 | 0.492
HCC-366 |  |  |  |  |  | 0.325 | 0.672 | 0.539 | 0.483 | 0.612 | 0.392 | 0.33 | 0.404 | 0.364 | 0.176 | 0.592 | 0.375 | 0.615 | 0.47
HCC-827 | 0.387 | 0.986 | 0.308 |  | 0.518 | 0.31 | 0.447 | 0.354 |  | 0.385 | 0.267 | 0.347 | 0.33 |  | 0.283 | 0.931 | 0.927 | 0.953 | 0.71
